{
  "source": "patent US20180344702A1",
  "about": "“METHODS FOR TREATING PATIENTS WITH HEMATOLOGIC MALIGNANCIES” (Aptose Biosciences, Inc., priority 2017, published 2018)",
  "key": {"[1]": {"tested_on": "Ba/F3-ITD (FLT3-ITD)", "experiment": "Antiproliferative activity (Table 6)", "assay_type": "cell-based, Murin", "conditions": "72 h"}, "[2]": {"tested_on": "human cells (e.g., FLTs-ITD-mutated leukemia cells MV4-11)", "experiment": "Mouse xenograft model, tumor volume", "assay_type": "in vivo, mice", "conditions": "several doses over a 22-day period, vs control or Ibrutinib", "method": "Animal Study: Balb/c mice were injected (SQ) with human cells (e.g., FLTs-ITD-mutated leukemia cells MV4-11), and treated orally (q.d.) with the indicated doses of Compound 7 for 14 days. The effect (e.g., anti-leukemia) was assessed by measuring tumor burden. Oral toxicity was evaluated, for example, by measuring body weight. Compound 7 concentrations in plasma were measured at the indicated time points after dosing at the first day."}, "[3]": {"tested_on": "Ba/F3 cells transfected with FLT3 ITD-D835Y", "experiment": "Cytotoxicity in isogenic transfected Ba/F3 cells (Table 4)", "assay_type": "cell-based, Murin", "conditions": "Mus musculus, BaF3, read-out: IC50 in Transfected Ba/F3 cells, FLT3 ITD-D835Y"}, "[4]": {"biological_target": "EGFR (Homo sapiens, UniProt P00533)", "sequence (P00533 25-1210)": "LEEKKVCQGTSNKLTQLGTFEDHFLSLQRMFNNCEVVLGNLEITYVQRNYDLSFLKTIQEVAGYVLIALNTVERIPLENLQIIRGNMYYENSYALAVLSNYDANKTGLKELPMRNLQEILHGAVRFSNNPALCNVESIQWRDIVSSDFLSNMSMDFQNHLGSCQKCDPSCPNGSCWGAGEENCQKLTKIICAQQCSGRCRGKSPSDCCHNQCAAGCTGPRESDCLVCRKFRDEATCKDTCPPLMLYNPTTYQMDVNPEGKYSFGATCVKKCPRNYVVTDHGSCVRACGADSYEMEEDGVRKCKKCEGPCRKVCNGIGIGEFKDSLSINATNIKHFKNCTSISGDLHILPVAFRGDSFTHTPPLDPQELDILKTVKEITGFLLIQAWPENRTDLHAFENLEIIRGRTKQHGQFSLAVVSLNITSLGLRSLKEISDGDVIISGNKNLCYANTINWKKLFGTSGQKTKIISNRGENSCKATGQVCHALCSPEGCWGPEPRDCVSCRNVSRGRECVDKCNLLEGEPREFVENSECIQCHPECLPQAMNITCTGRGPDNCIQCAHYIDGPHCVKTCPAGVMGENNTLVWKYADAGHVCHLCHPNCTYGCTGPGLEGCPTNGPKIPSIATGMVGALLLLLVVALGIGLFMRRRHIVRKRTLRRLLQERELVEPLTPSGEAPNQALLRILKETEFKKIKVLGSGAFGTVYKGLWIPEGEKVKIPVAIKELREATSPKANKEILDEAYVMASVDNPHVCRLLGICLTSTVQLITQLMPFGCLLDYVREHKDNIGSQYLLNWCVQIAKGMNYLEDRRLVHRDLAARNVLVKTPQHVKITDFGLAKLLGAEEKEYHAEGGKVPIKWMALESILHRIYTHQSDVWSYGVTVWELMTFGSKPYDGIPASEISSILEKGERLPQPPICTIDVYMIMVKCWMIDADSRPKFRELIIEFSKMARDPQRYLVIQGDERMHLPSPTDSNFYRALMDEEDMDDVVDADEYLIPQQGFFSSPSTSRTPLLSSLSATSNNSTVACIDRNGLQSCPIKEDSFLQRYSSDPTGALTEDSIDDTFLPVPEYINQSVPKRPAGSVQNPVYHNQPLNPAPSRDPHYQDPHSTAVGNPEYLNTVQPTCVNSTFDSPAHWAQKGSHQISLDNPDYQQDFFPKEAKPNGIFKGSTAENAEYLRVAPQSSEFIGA", "experiment": "Key off-targets (Table 8)", "assay_type": "biochemical"}, "[5]": {"tested_on": "Ba/F3-ITD + D835Y (FLT3-ITD + D835Y)", "experiment": "Antiproliferative activity (Table 6)", "assay_type": "cell-based, Murin", "conditions": "72 h"}, "[6]": {"tested_on": "Mino, RAMOS, GRANTA-519 and SU-DHL-6 cells", "experiment": "Cell cycle progression in B-cell malignant cell lines (EdU/PI, FACS)", "assay_type": "cell-based", "conditions": "FIGS. 27, 28", "method": "The data presented in FIGS. 27A-27D and FIGS. 28A-28D were generated using well-known protocols for measuring cell cycle progression (e.g., EdU and/or PI staining followed by FACS analysis using the BD Accuri C6 flow), and is readily apparent to a skilled artisan.\n(§1) Cell-cycle analysis: Cells were treated with vehicle, DMSO or Compound 7 and were stained with PI and EdU, and then analyzed by flow cytometry to determine the phases of cell cycle."}, "[7]": {"tested_on": "Ba/F3-D835Y (FLT3-D835Y)", "experiment": "Antiproliferative activity (Table 6)", "assay_type": "cell-based, Murin", "conditions": "72 h"}, "[8]": {"tested_on": "Ramos", "experiment": "Apoptosis in B-cell malignancies (annexin V/PI, cleaved PARP)", "assay_type": "cell-based", "conditions": "increasing concentrations", "method": "Mechanistic studies were undertaken to determine the mechanism of action for Compound 7. The apoptotic state of treated cells was determined by staining with annexin V and propidium iodide (PI), then analysis with the BD Accuri C6 flow cytometer, whereby live cells are annexin V/PI negative, early apoptotic cells are annexin V positive and late apoptotic cells are annexin V and PI positive. In addition production of cleaved PARP, a classic apoptotic marker, was assayed by western blotting with specific antibodies."}, "[9]": {"tested_on": "Ba/F3-ITD + 691 (ITD + F691L)", "experiment": "Antiproliferative activity (Table 6)", "assay_type": "cell-based, Murin", "conditions": "72 h"}, "[10]": {"biological_target": "T1, BTK (P190K) (Homo sapiens, UniProt Q06187, P190K)", "T1 construct": "RBC (only as the name of the general kinase protocol)", "T1 sequence (Q06187 whole entry P190K)": "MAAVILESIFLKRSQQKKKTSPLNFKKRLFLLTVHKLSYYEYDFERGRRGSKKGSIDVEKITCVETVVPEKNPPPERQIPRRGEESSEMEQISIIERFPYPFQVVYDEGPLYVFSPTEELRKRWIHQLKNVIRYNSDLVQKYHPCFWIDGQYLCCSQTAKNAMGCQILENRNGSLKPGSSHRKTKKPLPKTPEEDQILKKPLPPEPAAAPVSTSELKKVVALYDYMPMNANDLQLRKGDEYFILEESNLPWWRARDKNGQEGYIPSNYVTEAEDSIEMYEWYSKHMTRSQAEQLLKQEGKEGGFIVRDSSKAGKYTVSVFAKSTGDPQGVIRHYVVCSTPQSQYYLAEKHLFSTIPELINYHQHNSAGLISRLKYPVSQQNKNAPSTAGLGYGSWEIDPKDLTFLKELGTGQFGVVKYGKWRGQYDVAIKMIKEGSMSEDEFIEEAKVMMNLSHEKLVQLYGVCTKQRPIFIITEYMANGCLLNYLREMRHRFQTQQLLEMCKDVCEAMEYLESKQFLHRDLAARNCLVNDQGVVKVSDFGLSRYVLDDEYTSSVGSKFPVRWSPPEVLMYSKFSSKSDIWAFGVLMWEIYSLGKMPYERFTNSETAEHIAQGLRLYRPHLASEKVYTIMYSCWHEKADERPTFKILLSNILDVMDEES", "experiment": "Inhibition of BTK, kinase IC50", "assay_type": "biochemical", "method": "(§2) RBC HotSpot Kinase Assay Protocol:\n(§3) Reagents used: Base Reaction buffer; 20 mM Hepes (pH 7.5), 10 mM MgCl2, 1 mM EGTA, 0.02% Brij35, 0.02 mg/ml BSA, 0.1 mM Na3VO4, 2 mM DTT, 1% DMSO. Required cofactors are added individually to each kinase reaction.\n(§4) Compound 7 was dissolved in 100% DMSO to a specified concentration. The serial dilution was conducted by epMotion 5070 in DMSO. The substrate was freshly prepared in Reaction Buffer and any required cofactors to the substrate solution were added. The kinase was added to the solution and gently mixed. Compound 7 was added in 100% DMSO into the kinase reaction mixture by Acoustic technology (Echo550; nanoliter range), and incubated for 20 min at room temperature. ^33P-ATP (Specific activity 10 μCi/μl) was added into the reaction mixture to initiate the reaction, which was incubated for 2 hours, whereupon kinase activity was detected by the filter-binding method."}, "[11]": {"biological_target": "T2, BTK (E41K) (Homo sapiens, UniProt Q06187, E41K)", "T2 construct": "RBC (only as the name of the general kinase protocol)", "T2 sequence (Q06187 whole entry E41K)": "as the sequence (Q06187 whole entry P190K) above, with E41K, K190P counted along it", "experiment": "Inhibition of BTK, kinase IC50", "assay_type": "biochemical", "method": "as §2, §3, §4"}, "[12]": {"biological_target": "T3, BTK (Homo sapiens, UniProt Q06187)", "T3 construct": "RBC (only as the name of the general kinase protocol)", "experiment": "Inhibition of BTK, kinase IC50", "assay_type": "biochemical", "method": "as §2, §3, §4"}, "[13]": {"tested_on": "Ba/F3-D835G (FLT3-D835G)", "experiment": "Antiproliferative activity (Table 6)", "assay_type": "cell-based, Murin", "conditions": "72 h"}, "[14]": {"tested_on": "MOLM-13 cells", "experiment": "Cell-cycle analysis (flow cytometry)", "assay_type": "cell-based, human", "conditions": "dose-dependent", "method": "as §1"}, "[15]": {"biological_target": "T4, FLT3(WT) (Homo sapiens, UniProt P36888)", "experiment": "Binding constant (Kd), competition binding with qPCR readout"}, "[16]": {"biological_target": "T4, FLT3(WT)", "experiment": "Inhibition of FLT3, kinase IC50", "assay_type": "biochemical", "method": "as §2, §3, §4"}, "[17]": {"tested_on": "Ba/F3 cells transfected with FLT3 ITD-F691L", "experiment": "Cytotoxicity in isogenic transfected Ba/F3 cells (Table 4)", "assay_type": "cell-based, Murin", "conditions": "Mus musculus, BaF3, read-out: IC50 in Transfected Ba/F3 cells, FLT3 ITD-F691L"}, "[18]": {"biological_target": "T5, FLT3(K663Q) (Homo sapiens, UniProt P36888, K663Q)", "T5 construct": "made in house; host or cells: E. coli BL21-derived host (T7 phage) or HEK-293", "experiment": "Binding constant (Kd), competition binding with qPCR readout"}, "[19]": {"tested_on": "Aurora kinase in MV4-11 cells", "experiment": "Cell signaling Western blot", "assay_type": "cell-based, human", "conditions": "FIG. 24", "method": "Immunoblot assays: Cells were treated with Compound 7 at various concentrations and collected for cell lysates. The total and phosphorylated levels of the indicated proteins were determined by Western Blot."}, "[20]": {"tested_on": "MV411 cells", "experiment": "Cell-cycle analysis (EdU/PI flow cytometry)", "assay_type": "cell-based, human", "conditions": "dose-dependent", "method": "as §1"}, "[21]": {"biological_target": "T6, C481S BTK (Homo sapiens, UniProt Q06187, C481S)", "T6 construct": "expressed in transfected cells; host or cells: HEK293T", "T6 sequence (Q06187 whole entry C481S)": "as the sequence (Q06187 whole entry P190K) above, with K190P, C481S counted along it", "experiment": "BTK phosphorylation in transfected HEK293T cells (Western blot)", "assay_type": "cell-based", "conditions": "HEK293T transfected with C481S BTK; 0.5 and 1.0 μM, six hours", "method": "(§5) HEK293T cells were transiently transfected with wild-type BTK or C481S BTK. The transfected cells were treated with or without Compound 7 (0.5 and 1.0 μM) for six hours. This was performed in triplicate and the results were analyzed by Western Blot analysis."}, "[22]": {"biological_target": "T7, wild-type BTK (Homo sapiens, UniProt Q06187)", "T7 construct": "expressed in transfected cells; host or cells: HEK293T", "T7 sequence (Q06187 whole entry)": "as the sequence (Q06187 whole entry P190K) above, with K190P counted along it", "experiment": "BTK phosphorylation in transfected HEK293T cells (Western blot)", "assay_type": "cell-based", "conditions": "HEK293T transfected with wild-type BTK; 0.5 and 1.0 μM, six hours", "method": "as §5"}},
  "note": "pIC50, pKd: −log10 of the molar value.",
  "data": [
    {"compound": "Cc1cnc(-c2ccc(-c3ccc(NC(=O)Nc4c(F)cc(F)cc4F)cc3F)c3c2C(=O)NC3)[nH]1", "note": "[Compound 7, 1-{3-fluoro-4-[7-(5-methyl-1H-imidazol-2-yl)-1-oxo-2,3-dihydro-1H-isoindol-4-yl]-phenyl}-3-(2,4,6-trifluorophenyl)urea]", "values": [
      {"measurement": "pIC50", "setting": "[1]", "result": 9.52},
      {"measurement": "Tumor volume", "setting": "[2]", "result": "reduces tumor volume with increased dose"},
      {"measurement": "pIC50", "setting": "[3]", "result": 7.71},
      {"measurement": "pIC50", "setting": "[4]", "result": "< 6.00"},
      {"measurement": "Inhibition of EGFR (in words)", "setting": "[4]", "result": "no inhibition"},
      {"measurement": "pIC50", "setting": "[5]", "result": 8.01},
      {"measurement": "Cell cycle progression", "setting": "[6]", "result": "interferes with cell cycle progression"},
      {"measurement": "pIC50", "setting": "[7]", "result": 8.08},
      {"measurement": "Apoptosis induction versus ibrutinib", "setting": "[8]", "result": "induced apoptosis more effectively than ibrutinib at all concentrations tested"},
      {"measurement": "pIC50", "setting": "[9]", "result": 9.37},
      {"measurement": "pIC50", "setting": "[10]", "result": 8.18},
      {"measurement": "pIC50", "setting": "[11]", "result": 7.84},
      {"measurement": "pIC50", "setting": "[12]", "result": 8.07},
      {"measurement": "pIC50", "setting": "[13]", "result": 9.92},
      {"measurement": "G0/G1 cell-cycle arrest", "setting": "[14]", "result": "induce G0/G1 cell-cycle arrest"},
      {"measurement": "pKd", "setting": "[15]", "result": 9.62},
      {"measurement": "pIC50", "setting": "[16]", "result": 8.06},
      {"measurement": "pIC50", "setting": "[17]", "result": 8.00},
      {"measurement": "pKd", "setting": "[18]", "result": 9.26},
      {"measurement": "Aurora kinase activity and signaling (Western blot)", "setting": "[19]", "result": "inhibits Aurora kinase activity and signaling"},
      {"measurement": "G0/G1 cell-cycle arrest", "setting": "[20]", "result": "induce G0/G1 cell-cycle arrest"},
      {"measurement": "Inhibition of BTK (reduction in phosphorylated forms)", "setting": "[21]", "result": "inhibits both wild-type and the C481S mutant form of BTK"},
      {"measurement": "Inhibition of BTK (reduction in phosphorylated forms)", "setting": "[22]", "result": "inhibits both wild-type and the C481S mutant form of BTK"}
    ]}
  ]
}
